Test results published in US8969612B2, “Low interfacial tension surfactants for petroleum applications” (Soane Energy, LLC, priority 2009, dated 2015).

Legend:
Format in all cases: physicochemical
[1] = Solubility in water at 25° C.
[2] = Interfacial tension, Du Nouys ring tensiometer (Example 14), interface with light crude oil; conditions: 1% by weight solution, neutral pH (5 M NaOH); light crude oil API=37.4°
Description: (§1) Surfactant molecules were tested for their ability to decrease the surface tension across the aqueous-organic interface.

[3] = Interfacial tension, Du Nouys ring tensiometer (Example 14), interface with ISOPAR M; conditions: 1% by weight solution, neutral pH (5 M NaOH)
Description: as §1

[4] = Interfacial tension, Du Nouys ring tensiometer (Example 14), interface with air; conditions: 1% by weight solution, neutral pH (5 M NaOH)
Description: as §1

[5] = Viscosity of 70:30 heavy oil to water mixture, Brookfield rheometer (Example 16)
Description: The mixture was gently stirred until it was observed it achieved a single liquid phase. Previously, the viscosity of the neat heavy oil sample was measured at 3431 cP using a Brookfield DVIII+ Rheometer. […] Next, 1 mL of 10 M HCl was added and the mixture was stirred gently, while observing phase separation of the oil and water.

CCCCCC/C=C/CC(CC(=O)OCC(C)(C)COC(=O)CC(C/C=C/CCCCCC)C(=O)O)C(=O)O (stereo not drawn) [Example 2]
solubility in water (in words) [1]: very limited solubility in water

2-(nonen-1-yl)succinic acid mono (2-cyclohexylethyl) ester [Example 3]
IFT w/Crude Oil [2]: <0.01 mN/m
IFT w/ISOPAR [3]: 0.09 mN/m
IFT w/air [4]: 28.68 mN/m
viscosity of the 70:30 oil to water mixture ([5]; 105 mL heavy oil + 45 mL 1% surfactant solution, neat heavy oil 3431 cP): 100.2 cP
viscosity of oil decanted after phase separation with HCl ([5]; after addition of 1 mL of 10 M HCl to the 70:30 mixture): same viscosity measurement as the untreated heavy oil sample
